Molecules are shown by their SMILES. Converted amounts (≈) assume the structure as drawn.

Among the data in patent publication US5021415A, “Triazine carboxylic acids and esters” (Bristol-Myers Squibb Co., priority 1990, dated 1991) are IC50 values, retold here.

The first test concerns ADP-induced aggregation of human platelets. The test is classed as cell-based. The conditions noted are these: vs ADP, 0.5 mcg/mL final; human platelet rich plasma; Table 2; read-out: Inhibition of Human Platelet Aggregation of Formula II Compounds (IC50) Vs ADP.
Method: The aggregometer method of Born, C.V.R., J. Physiol., (London), 1962, 162, 67-68, as modified by Mustard, J.F., et al., J. Lab. […] The blood is immediately added to a test tube containing 3.8% sodium citrate to prevent clotting (1 part citrate to 9 parts blood).
Platelet rich plasma (PRP) was separated by centrifugation for 10 minutes at 1000 rpm (140xg) from citrated (3.8%) human blood. All glassware used for preparation of PRP is silicon treated. ADP in final concentration of 0.5 mcg/mL or 0.05 mL of a collagen suspension prepared according to the method described by Evans, G., et al., J. Exp. Med., 1968, 128, 877-894 was used to induce aggregation. The various compounds tested were dissolved in dimethylsulfoxide (DMSO) so that 5 mcl added to the platelet rich plasma would yield the desired test concentration. Vehicle control trials were done and compared with aggregation induced in platelet rich plasma containing various concentrations of the test compounds. Dose response curves were obtained and Inhibitor Concentration (IC50) values calculated.
For `O=C(O)COc1cccc(CCn2nc(-c3ccccc3)c(-c3ccccc3)nc2=O)c1` [Example 6, [3-[2-(2,3-Dihydro-3-oxo-5,6-diphenyl 1,2,4-triazin-2-yl)ethyl]phenoxy]acetic Acid], the IC50 came out at 0.9 µg/mL (≈ 2.11 µM).
On the same count and under the same terms, the figure for `COC(=O)COc1cccc(CCn2nc(-c3ccccc3)c(-c3ccccc3)nc2=O)c1` [Example 5, Methyl [3-[2-(2,3-dihydro-3-oxo-5,6-diphenyl-1,2,4-triazin-2-yl)ethyl]phenoxy]acetate] is 1 µg/mL (≈ 2.27 µM).

Still in this test, the particulars now being: vs. ADP, 0.5 mcg/mL final; human platelet rich plasma; Table 1; read-out: Inhibition of Human Platelet Aggregation of Formula I Compounds (IC50) vs. ADP.
As for `O=C(O)CCCCCCCn1nc(-c2ccccc2)c(-c2ccccc2)nc1=O` [Example 4, 3-Oxo-5,6-diphenyl-1,2,4-triazin-2(3H)-octanoic Acid], the IC50 amounted to 3.1 µg/mL (≈ 7.92 µM).
Consider `O=C(O)CCCCCCCCn1nc(-c2ccccc2)c(-c2ccccc2)nc1=O` [Example 2, 3-Oxo-5,6-diphenyl-1,2,4-triazine-2(3H)-nonanoic acid], for which the IC50 amounted to 2.2 µg/mL (≈ 5.43 µM).
Consider `COC(=O)CCCCCCCCn1nc(-c2ccccc2)c(-c2ccccc2)nc1=O` [Example 1, Methyl 3-oxo-5,6-diphenyl-1,2,4-triazine-2(3H)-nonanoate], for which the IC50 is 6.8 µg/mL (≈ 16.2 µM).
The same measure, in the same setting: the figure for `COC(=O)CCCCCCCn1nc(-c2ccccc2)c(-c2ccccc2)nc1=O` [Example 3, Methyl 3-Oxo-5,6-diphenyl-1,2,4-triazine-2(3H)-octanoate] is 4.6 µg/mL (≈ 11.3 µM).
